How the values were obtained:
[1] = biological target: T1, Human CCR5 receptor (Homo sapiens, UniProt P51681); test: Human CCR5 receptor-ligand binding assay; conditions: CHO-Gα16-hCCR5 cells, 125I RANTES radioligand
T1 construct: expressed in transfected cells
Description: Human CCR5 receptor (Genebank ID: 29169292) was cloned into mammalian expression vector, pTarget (Promega). The construct was transfected into CHO-Gα16 cells by using Fugene Reagent (Roche). Clones were selected under antibiotic pressure (G418 and Hygromycin) and sorted 4 times with a fluorescence activates cell sorter and a monoclonal antibody specific for CCR5 receptor (BD Biosciences Pharmigen, Mab 2D7, Cat. No. 555993). The clone with highest expression (100,000 copies per cell) was chosen for the binding assays.
Adherent cells in […] tissue culture flask (˜90% confluent) were harvested using 1 mM EDTA in PBS (phosphate-buffered saline) without Ca^2+ and Mg^2+. Cells were washed twice with PBS containing no Ca^2+ and Mg^2+. CHO-Gα16-hCCR5 cells were then resuspended (1×10^6/mL) in ice cold binding buffer (50 mM HEPES, 1 mM CaCl2, 5 mM MgCl2, 0.5% BSA, 0.05% NaN3, pH 7.24), pH 7.4), supplemented with freshly made 0.5% BSA and 0.05% NaN3.
Eighty μl CHO-Gα16-hCCR5 (1×10^6/mL) cells were added to 96 well plates. All dilutions were made in binding buffer (50 mM HEPES, 1 mM CaCl2, 5 mM MgCl2, 0.5% BSA, 0.05% NaN3, pH 7.24).
The plates were incubated on a cell shaker at RT for 2 h with a final concentration of 0.1 nM ^125I RANTES or ^125I MIP-1α or ^125I MIP-1β. The compound dilutions were made in PBS, 1% BSA. Total reaction volume was 100 μl per well. The test compounds were added to the cells prior to the addition of radioligand.
After incubation, the cells were harvested onto GF/C filter plates using Packard cell harvester. Filters were pretreated with 0.3% PEI/0.2% BSA for 30 min. The filter plate was washed rapidly 5 times with 25 mM HEPES, 500 mM NaCl, 1 mM CaCl2 and 5 mM MgCl2 adjusted to pH 7.1. Plates were dried in oven (70° C.) for 20 min, added with 40 μl scintillation fluid and sealed with Packard TopSeal-A. Packard Top Count was used to measure of the radioactivity for 1 min per well.
Total binding was determined with control wells added with radioisotope and buffer and the non-specific binding was determined using an excess cold RANTES to some of the control wells. Specific binding was determined by subtracting the non-specific form total binding. Results are expressed as the percentage of specific ^125I RANTES binding. IC50 values were determined using varying concentrations of the test ligand in triplicates and the data was analyzed using GraphPad Prism (GraphPad, San Diego, Calif.). c, […]

[2] = tested on: NLBal pseudotyped HIV-1; test: Antiviral assay, luciferase reporter in JC53BL cells; assay type: cell-based; conditions: Human immunodeficiency virus 1, JC53BL, 72 h, read-out: Antiviral Assay IC50
Experimental: The sensitivity of a recombinant HIV-1 virus pseudotyped with the envelope proteins of the CCR5-tropic virus NLBal to test compounds was determined in a Luciferase reporter assay using JC53BL cells. NLBal pseudotyped HIV-1 was generated by calcium phosphate transfection of 293T cells (ATCC) with equal amounts of DNA of an envelope-deleted HIV-1 plasmid and of a NLBal envelope expression plasmid. The media (DMEM, 10% fetal bovine serum, 1% Penicillin/streptomycin, 1% Glutamine, all Gibco) was changed 16 h post-transfection and virus containing supernatant was harvested 48 h post-transfection. To determine the sensitivity of NLBal pseudotyped HIV-1, 25.000 JC53BL cells (NIH AIDS Reagent Program) were infected with NLBal pseudotyped HIV-1 in presence of a drug gradient in white 96 well plates (Greiner Bio-one). The volume was adjusted to 200 μL using assay media (DMEM, 10% fetal bovine serum, 1% Penicillin/streptomycin, 1% Glutamine). After incubation at 37° C., 90% relative humidity, 5% CO2 for 3 days, 50 μL of Steady-Glo® Luciferase reagent (Promega) was added, incubated for 5 min at RT and luminescence was measured using a luminometer (Luminoskan, Thermo). The 50% and 90% inhibitory concentrations were calculated using Microsoft XL Fit 4 software.

[3] = tested on: collagen-induced arthritis; conditions: collagen-induced arthritis model; cited from earlier work

T1 sequence (P51681 whole entry): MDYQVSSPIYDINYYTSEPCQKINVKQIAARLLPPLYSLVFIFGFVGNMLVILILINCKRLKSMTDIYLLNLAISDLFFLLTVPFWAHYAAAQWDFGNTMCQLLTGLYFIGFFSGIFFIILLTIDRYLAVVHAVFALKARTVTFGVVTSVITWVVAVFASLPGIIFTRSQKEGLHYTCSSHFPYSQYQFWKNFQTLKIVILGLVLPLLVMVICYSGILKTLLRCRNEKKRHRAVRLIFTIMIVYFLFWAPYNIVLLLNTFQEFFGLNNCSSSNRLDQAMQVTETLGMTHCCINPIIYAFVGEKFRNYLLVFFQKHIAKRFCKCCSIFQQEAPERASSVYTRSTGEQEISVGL

Compound | IC50 [1] [nM] | other results
Cc1cc(C#N)nc(C)c1C(=O)N1CCC(C)(N2CCC(N3C(=O)N(CC4CCN(CC(F)F)CC4)C[C@H]3c3ccccc3)CC2)CC1 [I-15] | 18.3 | 
Cc1ncnc(C)c1C(=O)N1CCC(C)(N2CCC(N3C(=O)N(CC4CCOCC4)CC3c3ccccc3)CC2)CC1 (stereo not shown) [I-6, 3-[1′-(4,6-Dimethyl-pyrimidine-5-carbonyl)-4′-methyl-[1,4′]bipiperidinyl-4-yl]-4-phenyl-1-(tetrahydro-pyran4-ylmethyl)-imidazolidin-2-one] | 27.5 | 
CCCCC1CN(C2CCOCC2)C(=O)N1C1CCN(C2(C)CCN(C(=O)c3c(C)ncnc3C)CC2)CC1 (stereo not shown) [I-2] | 969 | 
Cc1noc(C(F)(F)F)c1C(=O)N1CCC(C)(N2CCC(N3C(=O)N(C[C@H]4CC[C@H](O)CC4)C[C@H]3c3ccccc3)CC2)CC1 [I-24, (R)-1-(4-Hydroxy-cyclohexylmethyl)-3-[4′-methyl-1′-(3-methyl-5-trifluoromethyl-isoxazole-4-carbonyl)-[1,4′]bipiperidinyl-4-yl]-4-phenyl-imidazolidin-2-one] | 7.1 | 
Cc1ncnc(C)c1C(=O)N1CCC(C)(N2CCC(N3C(=O)N(C4CCOCC4)C[C@H]3c3ccccc3)CC2)CC1 [I-13] | 90 | 
CC(=O)N1CCC(CN2C[C@@H](c3ccccc3)N(C3CCN(C4(C)CCN(C(=O)c5c(C)cc(C#N)nc5C)CC4)CC3)C2=O)CC1 [I-20, 5-{4-[(R)-3-(1-Acetyl-piperidin-4-ylmethyl)-2-oxo-5-phenyl-imidazolidin-1-yl]-4′-methyl-[1,4′]bipiperidinyl-1′-carbonyl}-4,6-dimethyl-pyridine-2-carbonitrile] | 42.5 | 
Cc1cc(C#N)nc(C)c1C(=O)N1CCC(C)(N2CCC(N3C(=O)N(C4CCC(O)CC4)C[C@H]3c3ccccc3)CC2)CC1 (stereo partly drawn) [I-23, 5-{4-[(R)-3-(4-Hydroxy-cyclohexyl)-2-oxo-5-phenyl-imidazolidin-1-yl]-4′-methyl-[1,4′]bipiperidinyl-1′-carbonyl}-4,6-dimethyl-pyridine-2-carbonitrile] | 20.6 | 
CCCCC1CN(CC2CCOCC2)C(=O)N1C1CCN(C2(C)CCN(C(=O)c3c(C)cc(C#N)nc3C)CC2)CC1 (stereo not shown) [I-4] | 4.4 | 
Cc1cc(C#N)nc(C)c1C(=O)N1CCC(C)(N2CCC(N3C(=O)N(CC4CCOCC4)C[C@H]3c3ccccc3)CC2)CC1 [I-7] | 11.2 | 
Cc1noc(C(F)(F)F)c1C(=O)N1CCC(C)(N2CCC(N3C(=O)N(CC4CCOCC4)C[C@H]3c3ccccc3)CC2)CC1 [I-8] | 5.1 | 
Cc1ncnc(C)c1C(=O)N1CCC(C)(N2CCC(N3C(=O)N(CC4CCOCC4)C[C@H]3c3ccccc3)CC2)CC1 [I-5, (R)-3-[1′-(4,6-Dimethyl-pyrimidine-5-carbonyl)-4′-methyl-[1 ,4′]bipiperidinyl-4-yl]-4-phenyl-1-(tetrahydro-pyran-4-ylmethyl)-imidazolidin-2-one] | 23.7 | 
Cc1cc(C#N)nc(C)c1C(=O)N1CCC(C)(N2CCC(N3C(=O)N(C4CCOCC4)C[C@H]3c3ccccc3)CC2)CC1 [I-12] | 90 | 
CCO[C@H]1CC[C@H](CN2C[C@@H](c3ccccc3)N(C3CCN(C4(C)CCN(C(=O)c5c(C)cc(C#N)nc5C)CC4)CC3)C2=O)CC1 [I-10] | 10.6 | 
COC(=O)N1CCC(CN2C[C@@H](c3ccccc3)N(C3CCN(C4(C)CCN(C(=O)c5c(C)cc(C#N)nc5C)CC4)CC3)C2=O)CC1 [I-17] | 35.7 | 
Cc1ncnc(C)c1C(=O)N1CCC(C)(N2CCC(N3C(=O)N(CC4CCOCC4)CC3c3cccc(F)c3)CC2)CC1 (stereo not shown) [I-27] | 89.4 | 
CCO[C@H]1CC[C@H](CN2C[C@@H](c3ccccc3)N(C3CCN(C4(C)CCN(C(=O)c5c(C)noc5C(F)(F)F)CC4)CC3)C2=O)CC1 [I-11] | 6.8 | 
CCCCC1CN(CC2CCOCC2)C(=O)N1C1CCN(C2(C)CCN(C(=O)c3c(C)ncnc3C)CC2)CC1 (stereo not shown) [I-3, 4-Butyl-3-[1′-(4,6-dimethyl-pyriridine-5-carbonyl)-4′-methyl-[1,4′]bipiperidinyl-4-yl]-1-(tetrahydro-pyran-4-ylmethyl)-imidazolidin-2-one] | 110 | 
Cc1cc(C#N)nc(C)c1C(=O)N1CCC(C)(N2CCC(N3C(=O)N(CC4CCN(S(C)(=O)=O)CC4)C[C@H]3c3ccccc3)CC2)CC1 [I-18, 5-{4-[(R)-3-(1-Methanesulfonyl-piperidin4-ylmethyl)-2-oxo-5-phenyl-imidazolidin-1-yl]-4′-methyl-[1,4′]bipiperidinyl-1′-carbonyl}-4,6-dimethyl-pyridine-2-carbonitrile] | 36.6 | 
COC(=O)N1CCC(CN2C[C@@H](c3ccccc3)N(C3CCN(C4(C)CCN(C(=O)c5c(C)ncnc5C)CC4)CC3)C2=O)CC1 [I-16, 4-{(R)-3-[1′-(4,6-Dimethyl-pyrimidine-5-carbonyl)-4′-methyl-[1,4′]bipiperidinyl-4-yl]-2-oxo-4-phenyl-imidazolidin-1-ylmethyl}-piperidine-1-carboxylic acid methyl ester] | 25.8 | 
CCO[C@H]1CC[C@H](CN2C[C@@H](c3ccccn3)N(C3CCN(C4(C)CCN(C(=O)c5c(C)cc(C#N)nc5C)CC4)CC3)C2=O)CC1 [I-26, 5-{4-[(S)-3-(4-Ethoxy-cyclohexylmethyl)-2-oxo-5-pyridin-2-yl-imidazolidin-1-yl]-4′-methyl-[1,4′]bipiperidinyl-1′-carbonyl}-4,6-dimethyl-pyridine-2-carbonitrile] | 24.7 | 
CCCCC1CN(C2CCOCC2)C(=O)N1C1CCN(C2(C)CCN(C(=O)c3c(C)cc(C#N)nc3C)CC2)CC1 (stereo not shown) [I-1, 5-{4-[5-Butyl-2-oxo-3-(tetrahydro-pyran-4-yl)-imidazolidin-1-yl]-4′-methyl-[1,4′]bipiperidinyl-1′-carbonyl}-4,6-dimethyl-pyridine-2-carbonitrile] | 8.5 | IC50 [2]: 19.8 nM
Cc1cc(C#N)nc(C)c1C(=O)N1CCC(C)(N2CCC(N3C(=O)N(CC4CCN(C(N)=O)CC4)C[C@H]3c3ccccc3)CC2)CC1 [I-21, 4-{(R)-3-[1′-(6-Cyano-2,4-dimethyl-pyridine-3-carbonyl)-4′-methyl-[1,4′]bipiperidinyl-4-yl]-2-oxo-4-phenyl-imidazolidin-1-ylmethyl}-piperidine-1-carboxylic acid amide] | 44 | 
Cc1cc(C#N)nc(C)c1C(=O)N1CCC(C)(N2CCC(N3C(=O)N(CC4CCOC4)CC3c3ccccc3)CC2)CC1 (stereo not shown) [I-25] | 54.4 | 
Cc1ncnc(C)c1C(=O)N1CCC(C)(N2CCC(N3C(=O)N(CC4CCN(CC(F)F)CC4)C[C@H]3c3ccccc3)CC2)CC1 [I-14, (R)-1-[1-(2,2-Difluoro-ethyl)-piperidin-4-ylmethyl]-3-[1′-(4,6-dimethyl-pyrimidine-5-carbonyl)-4′-methyl-[1,4′]bipiperidinyl-4-yl]-4-phenyl-imidazolidin-2-one] | 26.4 | 
TAK-779 |  | incidence and severity of arthritis [3]: reduce both the incidence and severity of arthritis
Cc1ncnc(C)c1C(=O)N1CCC(C)(N2CCC(N3C(=O)N(CC4CCN(S(C)(=O)=O)CC4)C[C@H]3c3ccccc3)CC2)CC1 [I-19] | 117 | 
CCO[C@H]1CC[C@H](CN2C[C@@H](c3ccccc3)N(C3CCN(C4(C)CCN(C(=O)c5c(C)ncnc5C)CC4)CC3)C2=O)CC1 [I-9] | 12.6 | 

Reference: patent US20090028818A1, “Heterocyclic antiviral compounds” (Roche Palo Alto LLC, priority 2007, published 2009)
